According to PubChem BioAssay (NCI):
Values joined by “and” are separate entries in the source; they are usually repeats but may differ in a detail not shown here. Identical values can stand only once.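 Briefly, cells in 96-well plates were exposed to five compound concentrations for 48 h, and endpoints were estimated by linear interpolation. Here, GI50 denotes the concentration required for 50% inhibition of growth. TGI denotes the concentration required for complete inhibition of growth.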

Experiments:
Assay in all cases: DTP human tumour cell line panel, 48 h
CCRF-CEM leukemia = system: CCRF-CEM leukemia
COLO 205 colon = system: COLO 205 colon
EKVX NSCLC = system: EKVX NSCLC
HL-60(TB) leukemia = system: HL-60(TB) leukemia
HOP-18 NSCLC = system: HOP-18 NSCLC
M14 melanoma = system: M14 melanoma
M19-MEL melanoma = system: M19-MEL melanoma
MDA-MB-435 = system: MDA-MB-435
NCI-H23 lung = system: NCI-H23 lung
NCI/ADR-RES ovarian = system: NCI/ADR-RES ovarian
OVCAR-3 ovarian = system: OVCAR-3 ovarian
SK-MEL-2 melanoma = system: SK-MEL-2 melanoma
SK-OV-3 ovarian = system: SK-OV-3 ovarian
SNB-78 CNS = system: SNB-78 CNS
SW-620 colon = system: SW-620 colon
UACC-62 melanoma = system: UACC-62 melanoma

CN1C(=O)CC2(C)c3cc(O)ccc3N(C)C12 (configuration not stated)
GI50 (CCRF-CEM leukemia): 9.66 µM
TGI (CCRF-CEM leukemia): 40.8 µM and 62.7 µM
GI50 (COLO 205 colon): 24.1 µM
TGI (COLO 205 colon): 75 µM and 63.1 µM
GI50 (EKVX NSCLC): > 75 µM
TGI (EKVX NSCLC): > 75 µM and 44.2 µM
GI50 (HL-60(TB) leukemia): 14.2 µM
TGI (HL-60(TB) leukemia): 31.5 µM and 70 µM
TGI (HOP-18 NSCLC): > 100 µM
TGI (M14 melanoma): 44.6 µM
TGI (M19-MEL melanoma): 46.2 µM
GI50 (MDA-MB-435): 9.51 µM
TGI (MDA-MB-435): 19.7 µM and 28.4 µM
GI50 (NCI-H23 lung): 25.7 µM
TGI (NCI-H23 lung): 75 µM and 61.9 µM
GI50 (NCI/ADR-RES ovarian): 17.2 µM
TGI (NCI/ADR-RES ovarian): 75 µM and 34.3 µM
GI50 (OVCAR-3 ovarian): 16.1 µM
TGI (OVCAR-3 ovarian): 32 µM and 30.9 µM
GI50 (SK-MEL-2 melanoma): > 75 µM
TGI (SK-MEL-2 melanoma): > 94.3 µM
GI50 (SK-OV-3 ovarian): > 75 µM
TGI (SK-OV-3 ovarian): > 100 µM
TGI (SNB-78 CNS): > 100 µM
GI50 (SW-620 colon): 13.9 µM
TGI (SW-620 colon): 28.9 µM and 42.6 µM
TGI (UACC-62 melanoma): 38.6 µM and 45.5 µM
